According to patent EP1285920A1, “C10 Ester sustituted taxanes as antitumor agents” (Florida State University Research Foundation, Inc., priority 2001, dated 2003):
Read-outs that look alike come from different tables or passages of the source.

Legend:
[1] = system: HCT116; experiment: In Vitro cytotoxicity measured by the cell colony formation assay; type: cell-based, human; conditions: Homo sapiens, HCT-116; read-out: IN VITRO ID 50 HCT116
Outline: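 Four hundred cells per dish in McCoy's 5a medium with 10% FBS were allowed to attach for 5 h at 37 °C. They were then exposed to compound for 72 h at 37 °C, added as a 10× stock made fresh in medium. After HBSS rinsing and refeeding, colonies were counted after 7 days.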

[2] = system: DU145 prostate carcinoma; conditions: for Mean Score / Stable Disease / Complete Response / Partial Response / Survivors: i.v. qd x 1 at estimated MTD (Taxol 24 mg/kg split); for Mean Score / Stable Disease / Toxic Deaths / Complete Response / Partial Response / Survivors: Day 91; for Stable Disease / Toxic Deaths / Complete Response / Partial Response / Survivors: number of 5 mice; for Stable Disease: tumor did not reach 1.5 g by end of study
Text: Dosing was initiated on Day 1. […] Treatment groups are detailed in Table 5.

[3] = system: A375 melanoma; conditions: for MDS (n): mean days of survival until neoplasm reached 2.0 g, terminated Day 60; for Mean Score: tumor scoring system
Protocol: Dosing was initiated on Day 1. […] Taxotere was given i.v. on a qd x 1 schedule at a dose of 70 mg/kg. […] The study was terminated on Day 60. Treatment groups are detailed in Table 9.

[4] = system: VM46 colon carcinoma
Protocol: Dosing was initiated on Day 1. […] Taxotere was given i.v. at a dose of 70 mg/kg on a qd x 1 schedule.

[5] = system: Panc-1 pancreatic carcinoma; experiment: In vivo evaluation against Panc-1 human pancreatic carcinoma (Example 17); conditions: for MDS: i.v. qd x 1 (compounds estimated MTD; Taxol 36 mg/kg split), days until tumor 1.5 g, ended Day 60; for MDS (n): mean days of survival until neoplasm reached 1.5 g, terminated Day 60; for Mean Score: tumor scoring system
Protocol: The dosing volume was 0.3 ml per 20 g mouse.
Female NCr-nude mice were implanted subcutaneously with 1 mm^3 Panc-1 pancreatic carcinoma fragments in the flank and sorted into treatment groups of six mice each. […] Dosing was initiated on Day 1. The antitumor compounds were given i.v. at an estimated maximum tolerated dose (MTD) appropriate for each agent on a qd x 1 schedule (single administration of compound). […] The vehicle was administered i.v. to control mice in Group 1 on the qd x 1 schedule. The study was terminated on Day 60.
The mean days of survival is the number of days after which a neoplasm reached a size of 1.5 g and the animal was euthanized. A complete response is obtained if the tumor shrinks to a size smaller than its size on Day 1 of the study.

[6] = system: SK-MES carcinoma; experiment: In vivo evaluation against SK-MES human lung carcinoma xenograft (i.v., Example 11)
Protocol: Antitumor compounds were formulated for an i.v. dosing regime prepared in the following vehicle: 10% ethanol, 10% Cremophor and 80% isotonic saline.
Vehicle control animals were dosed twice intravenously with half the total volume being given separated by one hour. The study was terminated on Day 60.
A complete response is obtained if the tumor is not palpable at the end of the study.
A tumor scoring system was designed to provide a more quantitative ranking of efficacy (therapeutic potential) among the antitumor agents evaluated against the different human solid tumor xenografts. Each mouse in a study was given a score of from 1 to 10 at the end of the study. The scores can be summarized as follows:
The individual score for each mouse was averaged into a mean score for each treatment group. […]

[7] = system: HCT116 carcinoma; conditions: i.v. qd x 1 at MTD, Day 60
Outline: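 Mice bearing HCT116 tumours received a single i.v. maximum tolerated dose per compound, formulated in 5% ethanol, 5% Cremophor, 90% isotonic saline. Study ended on Day 60; complete response meant no palpable tumour at study end.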

[8] = system: A2780 ovarian carcinoma
Protocol: Dosing was initiated on Day 1. […] Taxotere was given i.v. on a qd x 1 schedule at a dose of 70 mg/kg. […] The study was terminated on Day 60. Treatment groups are detailed in Table 7.

[9] = i.v. qd x 1 at estimated MTD (Taxol 24 mg/kg as two split doses)
[10] = A375, i.v. qd x 1, six mice per group
[11] = i.v. qd x 1 at estimated MTD (Taxol 24 mg/kg, Taxotere 70 mg/kg), 6 mice/group (Taxotere 7)
[12] = number of mice, i.v. qd x 1 at estimated MTD (Taxol 24 mg/kg, Taxotere 70 mg/kg), 6 mice/group (Taxotere 7)
[13] = number of mice, i.v. qd x 1 at estimated MTD (Taxol 24 mg/kg, Taxotere 70 mg/kg), 6 mice/group (Taxotere 7), Day 60
[14] = VM46, i.v. qd x 1, six mice per group
[15] = number of mice, i.v. qd x 1, mg/kg: Taxol 24, 0499 77, 0503 72.6, 0670 123.1, 0706 107.6, 0838 72.6, 0854 46.6, 0983 67.4, Taxotere 70, 6 mice/group
[16] = number of mice, i.v. qd x 1, mg/kg: Taxol 24, 0499 77, 0503 72.6, 0670 123.1, 0706 107.6, 0838 72.6, 0854 46.6, 0983 67.4, Taxotere 70, 6 mice/group, Day 64
[17] = Panc-1 (Example 17), i.v. qd x 1, six mice per group
[18] = i.v. qd x 1, mg/kg: Taxol 36, 0499 77, 0503 72.6, 0670 123.1, 0706 107.6, 0838 72.6, 0854 76.9, 6 mice/group
[19] = number of mice, i.v. qd x 1, mg/kg: Taxol 36, 0499 77, 0503 72.6, 0670 123.1, 0706 107.6, 0838 72.6, 0854 76.9, 6 mice/group
[20] = number of mice, i.v. qd x 1, mg/kg: Taxol 36, 0499 77, 0503 72.6, 0670 123.1, 0706 107.6, 0838 72.6, 0854 76.9, 6 mice/group, Day 60
[21] = number of mice, i.v. qd x 1 at estimated MTD (Taxol 24 mg/kg, Taxotere 70 mg/kg, 0983 72.6 mg/kg), 5 mice/group (Taxotere 6), Day 60

In the case of `CCC(=O)O[C@H]1C(=O)[C@@]2(C)[C@H]([C@H](OC(=O)c3ccccc3)[C@]3(O)C[C@H](OC(=O)[C@H](O)[C@H](C=C(C)C)NC(=O)OC(C)(C)C)C(C)=C1C3(C)C)[C@]1(OC(C)=O)CO[C@@H]1C[C@@H]2O` [Compound 0499], the IC50 [1] is reported as < 1 nM, the “Mean Score” value ([2]; 5 mice/group) is reported as 4.4 ± 1.4 and the “MDS (n)” value ([2]; mean days of survival until tumor reached 1.5 g, i.v. qd x 1 at estimated MTD (Taxol 24 mg/kg as two split doses), 5 mice/group, study ended Day 91) is reported as 67.2 ± 8.3 (3) days. For the same compound, the “Stable Disease” value [2] was 1, the “Toxic Deaths” value [2, 9] was 0 and the “Complete Response” value [2] was 1. The “Partial Response” value [2] was 0, the Survivors [2] was 2 and the Stable Disease [3, 10] was “one”. For the same compound, the “MDS (n)” value [3, 11] was 30.5 ± 3.5 (3) days, the “Toxic Deaths” value [3, 12] was 2 and the “Complete Response” value [3, 13] was 0. The “Partial Response” value [3, 13] was 0, the “Stable Disease” value [3, 13] was 1 and the Survivors [3, 13] was 1. The “Mean Score” value [3, 11] was 2.3 ± 0.9, the “tolerability” value ([4]; VM46, i.v. qd x 1) was “well-tolerated” and the Toxic Deaths [4, 14] was “no toxic deaths”. For the same compound, the “Mean Score” value ([4]; iv) was 2 ± 0.3, the “MDS (n)” value ([4]; iv, 1536 h) was 41.9 ± 4.2 (5) days and the “Toxic Deaths” value [4, 15] was 0. For the same compound, the “Complete Response” value [4, 16] was 0, the “Partial Response” value [4, 16] was 0 and the “Stable Disease” value [4, 16] was 1. For the same compound, the Survivors [4, 16] was 1, the MDS ([5]; Panc-1 (Example 17)) was 47 to 56 days and the Partial Response [5, 17] was 1. The Stable Disease [5, 17] was “one”, the complete responses [5, 17] was 2 and the “MDS (n)” value [5, 18] was 56.1 ± 1.0 (2) days. The “Toxic Deaths” value [5, 19] was 0, the “Complete Response” value [5, 20] was 2 and the “Partial Response” value [5, 20] was 1. The “Stable Disease” value [5, 20] was 1, the Survivors [5, 20] was 4 and the “Mean Score” value [5, 18] was 7.4 ± 1.4.

For `CCC(=O)O[C@H]1C(=O)[C@@]2(C)[C@H]([C@H](OC(=O)c3ccccc3)[C@]3(O)C[C@H](OC(=O)[C@H](O)[C@@H](NC(=O)OC(C)(C)C)c4ccccn4)C(C)=C1C3(C)C)[C@]1(OC(C)=O)CO[C@@H]1C[C@@H]2O` [Compound 0503], the IC50 [1] was < 1 nM, the “antitumor activity” value ([6]; SK-MES, 0503 72.1 mg/kg i.v.) was “highly active” and the “MDS (n)” value ([6]; SK-MES, i.v. MTD in two half doses one hour apart, qd x 1, Taxol 36 mg/kg, 0503 72.1 mg/kg, days until tumor 1.5 g, ended Day 60) was 46.0 ± 0(2) days. The “Toxic Deaths” value ([6]; SK-MES, i.v. split dose qd x 1, six mice per group) was 0, the Survivors ([6]; SK-MES, i.v. split dose qd x 1, six mice per group, Day 60) was 4 and the “Stable Disease” value ([6]; SK-MES, i.v. split dose qd x 1, tumor below 1.5 g at termination) was 1. The “Partial Response” value ([6]; SK-MES, i.v. split dose qd x 1, tumor smaller than on Day 1) was 0, the “Mean Score” value ([6]; SK-MES, tumor score 1 to 10 per mouse, group mean) was 6.5 ± 1.6 and the “tolerability” value ([6]; mouse, in vivo, iv, 72.1 mg/kg) was “well tolerated”. The “Mean Score” value ([7]; 5 mice/group, doses as in E3) was 9.2 ± 0.2, the “Stable Disease” value ([7]; number of 5 mice, tumor did not reach 2.0 g by end of study, doses as in E3) was 0 and the “Complete Response” value ([7]; number of 5 mice, tumor not palpable at end of study, doses as in E3) was 1. For the same compound, the “Partial Response” value ([7]; number of 5 mice, tumor smaller than on Day 1, doses as in E3) was 4, the Survivors ([7]; number of 5 mice, doses as in E3) was 5 and the “Toxic Deaths” value ([7]; number of 5 mice, mg/kg: Taxol 36 (split doses), 0503 72.6, 0536 49, 0663 159, 0670 123, 0687 159, 0706 108, 0908 159, 0947 76.9, 0951 72.6, 0983 72.6, 0999 49, 1003 49, 1011 108) was 0. For the same compound, the total response rate ([2]; DU145, i.v. qd x 1 at estimated MTD, five mice per group) was “at least 50%”, the “Mean Score” value ([2]; 5 mice/group) was 6.2 ± 1.9 and the “Stable Disease” value [2] was 2. For the same compound, the “Toxic Deaths” value [2, 9] was 1, the “Complete Response” value [2] was 2 and the “Partial Response” value [2] was 0. For the same compound, the Survivors [2] was 4, the “antitumor activity” value ([8]; A2780, i.v. qd x 1) was “did not cause any complete responses, partial responses, or cases of stable disease” and the “MDS (n)” value ([8]; mean days of survival until neoplasm reached 2.0 g, i.v. qd x 1 at estimated MTD (Taxol 24 mg/kg, Taxotere 70 mg/kg, 0983 72.6 mg/kg), 5 mice/group (Taxotere 6), terminated Day 60) was 32.4 ± 4.7 (5) days. For the same compound, the “Toxic Deaths” value ([8]; number of mice, i.v. qd x 1 at estimated MTD (Taxol 24 mg/kg, Taxotere 70 mg/kg, 0983 72.6 mg/kg), 5 mice/group (Taxotere 6)) was 0, the “Complete Response” value [8, 21] was 0 and the “Partial Respons” value [8, 21] was 0. For the same compound, the “Stable Disease” value [8, 21] was 0, the Survivors [8, 21] was 0 and the “Mean Score” value ([8]; tumor scoring system, i.v. qd x 1 at estimated MTD (Taxol 24 mg/kg, Taxotere 70 mg/kg, 0983 72.6 mg/kg), 5 mice/group (Taxotere 6)) was 2.8 ± 0.2. For the same compound, the “survival extension compared to Group 1 controls” value ([3]; A375, i.v. qd x 1) was 95%, the Complete Response [3, 10] was 1 and the “MDS (n)” value [3, 11] was 28.1 ± 5.8 (3) days. The “Toxic Deaths” value [3, 12] was 2, the “Complete Response” value [3, 13] was 1 and the “Partial Response” value [3, 13] was 0. The “Stable Disease” value [3, 13] was 0, the Survivors [3, 13] was 1 and the “Mean Score” value [3, 11] was 2.8 ± 1.5. For the same compound, the “tolerability” value ([4]; VM46, i.v. qd x 1) was “well-tolerated”, the partial responses ([4]; VM46, i.v. qd x 1 (compounds estimated MTD; Taxol 24 mg/kg split), six mice per group, ended Day 64) was “four” and the Stable Disease [4, 14] was “two”. For the same compound, the Toxic Deaths [4, 14] was “no toxic deaths”, the response rate ([4]; VM46, i.v. qd x 1 at estimated MTD) was 66.7% and the “Toxic Deaths” value [4, 15] was 0. For the same compound, the “Complete Response” value [4, 16] was 0, the “Partial Response” value [4, 16] was 4 and the “Stable Disease” value [4, 16] was 1. The Survivors [4, 16] was 5, the “Mean Score” value ([4]; tumor scoring system, i.v. qd x 1, mg/kg: Taxol 24, 0499 77, 0503 72.6, 0670 123.1, 0706 107.6, 0838 72.6, 0854 46.6, 0983 67.4, Taxotere 70, 6 mice/group) was 7.3 ± 1.2 and the MDS ([5]; Panc-1 (Example 17)) was 47 to 56 days. For the same compound, the Stable Disease [5, 17] was “three”, the “MDS (n)” value [5, 18] was 52.5 ± 2.1 (3) days and the “Toxic Deaths” value [5, 19] was 0. For the same compound, the “Complete Response” value [5, 20] was 0, the “Partial Response” value [5, 20] was 0 and the “Stable Disease” value [5, 20] was 3. For the same compound, the Survivors [5, 20] was 3 and the “Mean Score” value [5, 18] was 3.6 ± 0.4.
